Assay results as given in ChEMBL document CHEMBL1132622, “Synthesis, structure-activity relationships, and in vivo evaluations of substituted di-tert-butylphenols as a novel class of potent, selective, and orally active cyclooxygenase-2 inhibitors. 2. 1,3,4- and 1,2,4-thiadiazole series” (J Med Chem, 1999).

How the values were obtained:
[1] = molecular target: T1, Prostaglandin G/H synthase 2 (Homo sapiens, UniProt P35354); test: Inhibition of recombinant human prostaglandin G/H synthase 2 (COX-2)
T1 sequence (P35354 whole entry): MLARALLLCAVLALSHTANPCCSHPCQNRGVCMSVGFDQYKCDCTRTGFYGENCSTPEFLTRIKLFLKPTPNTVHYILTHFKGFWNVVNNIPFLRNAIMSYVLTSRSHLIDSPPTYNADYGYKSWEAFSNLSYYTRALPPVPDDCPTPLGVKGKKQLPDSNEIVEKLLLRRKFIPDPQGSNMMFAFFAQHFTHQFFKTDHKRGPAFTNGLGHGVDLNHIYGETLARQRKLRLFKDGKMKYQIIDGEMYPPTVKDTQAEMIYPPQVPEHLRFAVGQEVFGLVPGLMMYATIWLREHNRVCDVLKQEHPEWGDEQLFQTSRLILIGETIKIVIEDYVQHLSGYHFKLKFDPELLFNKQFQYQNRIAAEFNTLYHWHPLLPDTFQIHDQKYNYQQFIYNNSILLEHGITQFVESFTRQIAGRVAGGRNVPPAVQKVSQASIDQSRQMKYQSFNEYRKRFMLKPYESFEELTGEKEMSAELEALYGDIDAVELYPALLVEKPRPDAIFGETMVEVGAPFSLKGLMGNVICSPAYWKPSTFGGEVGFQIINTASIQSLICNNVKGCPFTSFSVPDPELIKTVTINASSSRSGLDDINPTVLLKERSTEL

[2] = molecular target: T2, Prostaglandin G/H synthase 1 (Ovis aries, UniProt P05979); test: IC50 value against ovine Prostaglandin G/H synthase 1
T2 sequence (P05979 whole entry): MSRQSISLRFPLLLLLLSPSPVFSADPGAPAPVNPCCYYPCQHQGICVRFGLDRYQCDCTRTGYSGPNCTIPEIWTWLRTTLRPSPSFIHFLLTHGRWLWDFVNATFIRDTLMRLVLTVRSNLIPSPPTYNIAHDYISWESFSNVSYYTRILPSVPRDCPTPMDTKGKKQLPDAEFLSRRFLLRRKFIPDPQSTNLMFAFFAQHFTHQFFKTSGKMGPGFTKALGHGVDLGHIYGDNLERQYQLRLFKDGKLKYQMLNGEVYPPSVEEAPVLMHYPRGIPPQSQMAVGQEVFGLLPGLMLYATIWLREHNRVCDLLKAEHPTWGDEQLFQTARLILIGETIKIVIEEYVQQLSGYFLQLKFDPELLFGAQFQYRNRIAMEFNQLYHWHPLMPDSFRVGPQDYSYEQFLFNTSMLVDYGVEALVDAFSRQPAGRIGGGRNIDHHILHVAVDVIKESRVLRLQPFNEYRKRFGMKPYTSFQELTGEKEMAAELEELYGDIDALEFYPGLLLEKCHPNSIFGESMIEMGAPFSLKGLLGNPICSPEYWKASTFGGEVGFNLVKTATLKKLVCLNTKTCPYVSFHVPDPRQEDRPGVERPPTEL

[3] = molecular target: Prostaglandin G/H synthase 1 (Homo sapiens, UniProt P23219); test: IC50 value against Prostaglandin G/H synthase 1 of human platelet rich plasma; format: cell-free
[4] = molecular target: T3, Prostaglandin G/H synthase 2 (Mus musculus, UniProt Q05769)
T3 sequence (Q05769 whole entry): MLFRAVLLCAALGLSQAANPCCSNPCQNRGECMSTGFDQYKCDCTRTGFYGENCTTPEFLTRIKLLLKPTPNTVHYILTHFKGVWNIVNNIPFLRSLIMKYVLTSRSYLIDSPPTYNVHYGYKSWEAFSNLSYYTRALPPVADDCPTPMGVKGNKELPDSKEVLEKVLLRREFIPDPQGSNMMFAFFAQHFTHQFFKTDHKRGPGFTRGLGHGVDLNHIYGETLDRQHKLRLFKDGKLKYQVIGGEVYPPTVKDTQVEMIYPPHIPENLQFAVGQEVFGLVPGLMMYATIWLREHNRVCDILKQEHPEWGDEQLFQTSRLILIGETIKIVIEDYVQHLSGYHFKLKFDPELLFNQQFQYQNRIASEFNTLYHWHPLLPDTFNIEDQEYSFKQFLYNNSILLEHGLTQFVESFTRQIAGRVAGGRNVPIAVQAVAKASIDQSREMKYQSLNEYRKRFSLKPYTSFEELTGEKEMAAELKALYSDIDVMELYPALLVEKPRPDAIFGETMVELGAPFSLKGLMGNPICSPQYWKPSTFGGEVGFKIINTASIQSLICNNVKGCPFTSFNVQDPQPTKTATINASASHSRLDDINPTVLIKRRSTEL

Rattus norvegicus [5] = organism: Rattus norvegicus; test: ED50 was measured by CFE assay method.; format: functional
Rattus norvegicus [6] = organism: Rattus norvegicus; test: ED50 was measured by hyperalgesia assay method.; format: functional
Rattus norvegicus [7] = organism: Rattus norvegicus; test: Percentage inhibition of the prostaglandin synthesis was measured in rats.; format: functional
Rattus norvegicus [8] = organism: Rattus norvegicus; test: Percentage of gastric damage was measured in rats.; format: functional, Stomach
Rattus norvegicus [9] = organism: Rattus norvegicus; test: Lesion frequency was measured in rats.; format: functional
[10] = molecular target: T3, Prostaglandin G/H synthase 2; test: IC50 value against Prostaglandin G/H synthase 2 of murine J774A.1 cell line

Sequence of Prostaglandin G/H synthase 1 (Homo sapiens, UniProt P23219) (P23219 whole entry): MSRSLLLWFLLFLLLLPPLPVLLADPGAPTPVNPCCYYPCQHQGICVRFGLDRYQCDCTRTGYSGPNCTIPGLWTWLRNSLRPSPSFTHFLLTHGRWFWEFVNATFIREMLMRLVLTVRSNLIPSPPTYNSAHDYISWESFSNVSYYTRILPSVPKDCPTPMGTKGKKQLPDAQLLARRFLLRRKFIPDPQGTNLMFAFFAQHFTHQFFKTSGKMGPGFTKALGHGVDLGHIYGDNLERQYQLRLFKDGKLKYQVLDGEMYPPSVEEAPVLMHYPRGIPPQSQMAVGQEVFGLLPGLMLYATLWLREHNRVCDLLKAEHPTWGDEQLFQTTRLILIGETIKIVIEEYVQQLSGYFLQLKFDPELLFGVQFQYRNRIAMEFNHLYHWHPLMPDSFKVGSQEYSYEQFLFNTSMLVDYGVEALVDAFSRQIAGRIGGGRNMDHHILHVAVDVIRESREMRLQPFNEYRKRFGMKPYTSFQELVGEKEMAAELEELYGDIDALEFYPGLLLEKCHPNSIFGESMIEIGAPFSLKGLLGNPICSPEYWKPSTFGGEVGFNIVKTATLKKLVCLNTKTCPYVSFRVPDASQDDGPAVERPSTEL

Row | SMILES | IC50 [1] [µM] | IC50 [2] [µM] | IC50 [3] [µM] | IC50 [4] [µM] | ED50 (Rattus norvegicus [5]) [mg/kg] | ED50 (Rattus norvegicus [6]) [mg/kg] | Inhibition (Rattus norvegicus [7]) [%] | Damaged area (Rattus norvegicus [8]) [%] | Lesion frequency (Rattus norvegicus [9]) [%] | IC50 [10]
1 | CC(=O)Nc1nc(-c2cc(C(C)(C)C)c(O)c(C(C)(C)C)c2)ns1 | > 20 | > 20 |  |  |  |  |  |  |  | 
2 | CCN(CC)CCSc1nnc(-c2cc(C(C)(C)C)c(O)c(C(C)(C)C)c2)s1 | 19 | > 20 | > 20 | > 20 |  |  |  |  |  | 
3 | CC(C)(C)c1cc(-c2nnc(S)s2)cc(C(C)(C)C)c1O |  | 20 | > 20 | 0.35 |  |  |  |  |  | 
4 | CSc1nnc(-c2nc(C(C)(C)C)c(O)c(C(C)(C)C)n2)s1 |  | 0.097 | 0.2 | 0.026 |  |  |  |  |  | 
5 | CS(=O)(=O)c1ccc(-n2nc(C(F)(F)F)cc2-c2ccc(F)cc2)cc1 [SC-58125] |  |  |  |  | > 30 | 0.3 | -1.58 | 0 | 0 | 
6 | CC(C)Sc1nnc(-c2cc(C(C)C)c(O)c(C(C)C)c2)s1 | > 20 | > 20 |  |  |  |  |  |  |  | 
7 | CC(C)(C)c1cc(-c2nnc(S)o2)cc(C(C)(C)C)c1O | 47 | > 20 | > 20 | 0.92 |  |  |  |  |  | 
8 | COc1c(C(C)(C)C)cc(-c2nnc(S)s2)cc1C(C)(C)C | 1.5 | > 20 | > 20 | 0.3 |  |  |  |  |  | 
9 | CC(C)(C)c1cc(-c2nnc(O)o2)cc(C(C)(C)C)c1O | > 20 | > 20 | 3.2 | > 20 |  |  |  |  |  | 
10 | CSc1nnc(-c2cc(C(C)(C)C)c(O)c(C(C)(C)C)c2)o1 |  | 12 | 1.2 | 0.14 |  |  |  |  |  | 
11 | CC(C)(C)c1cc(-c2nsc(N)n2)cc(C(C)(C)C)c1O | > 20 | > 20 |  |  |  |  |  |  |  | 
12 | CCOc1nnc(-c2cc(C(C)(C)C)c(O)c(C(C)(C)C)c2)s1 | 6.1 | 3.4 | 1.2 | 0.07 |  |  |  |  |  | 
13 | COc1ccc2c(c1)c(CC(=O)O)c(C)n2C(=O)c1ccc(Cl)cc1 [INDOMETHACIN] |  |  |  |  | 1.6 | 0.6 | 13.36 | 0.18 | 75 | 
14 | CC(C)(C)c1cc(-c2noc(NC#N)n2)cc(C(C)(C)C)c1O | 0.064 | 51 | 1.2 | 1.4 |  |  |  |  |  | 
15 | CSc1nnc(-c2cc(C(C)(C)C)c(O)c(C(C)(C)C)c2)s1 | 0.15 | 0.51 | 0.18 | 0.009 |  |  |  |  |  | 
16 | CC(C)(C)c1cc(-c2nnc(NN)s2)cc(C(C)(C)C)c1O | 1.3 | 17 | 3.2 | 3.7 |  |  |  |  |  | 
17 | CC(C)Oc1nnc(-c2cc(C(C)(C)C)c(O)c(C(C)(C)C)c2)s1 | > 20 | > 20 | 4.5 |  |  |  |  |  |  | Not Active
18 | COc1c(C(C)(C)C)cc(-c2nnc(SC)s2)cc1C(C)(C)C | 0.34 | 5.8 | 0.77 | 0.012 |  |  |  |  |  | 
19 | CCSc1nnc(-c2cc(C(C)(C)C)c(O)c(C(C)(C)C)c2)s1.C[N+](C)(C)CC[O-] |  |  |  |  | 7.1 |  | 77.4 | 0.05 | 12.5 | 
20 | CCSc1nnc(-c2cc(C(C)(C)C)c(O)c(C(C)(C)C)c2)s1 | 0.14 | 100 | 3.1 | 0.18 |  |  |  |  |  | 
21 | CC(C)(C)c1cc(-c2nnc(SCCN)s2)cc(C(C)(C)C)c1O | 41 | 36 | > 20 |  |  |  |  |  |  | Not Active
